Measurements reported in article PMC6746705, “Distinct effects of Q925 mutation on intracellular and extracellular Na^+ and K^+ binding to the Na^+, K^+-ATPase” (Scientific Reports, 2019).

System: T1, endogenous COS-1 cell Na+, K+-ATPase
T1 construct: gene ATP1A1; endogenous enzyme in COS-1 plasma membranes
Test: high-affinity phase of biphasic ouabain inhibition of Na+,K+-ATPase activity in plasma membranes
Format: biochemical

Work on `C[C@@H]1O[C@@H](O[C@H]2C[C@@H](O)[C@]3(CO)[C@H]4[C@H](O)C[C@]5(C)[C@@H](C6=CC(=O)OC6)CC[C@]5(O)[C@@H]4CC[C@]3(O)C2)[C@H](O)[C@H](O)[C@H]1O` [ouabain] yielded an IC50 of about 1000 nM.
